Source: PMC11795524, “Melanin-Binding-Based Discovery of Topically Instilled Carbonic Anhydrase Inhibitors for Targeted Delivery and Prolonged Action in the Eye” (Molecular Pharmaceutics, 2025)
Read-outs that look alike come from different tables or passages of the source.

Legend:
[1] = target: recombinant human carbonic anhydrase II; set-up: method as in earlier work; conditions: stopped flow kinetics protocol; read-out: Ki against hCA II; cited from earlier work
[2] = In vitro melanin binding by microscale thermophoresis / initial fluorescence (Monolith NT.115 pico); conditions: Appendix table 1, Nano or Pico detector, IF or MST mode, 68% confidence; for Kd: read-out: Melanin binding affinity Kd ± confidence
Description: Melanin binding of the CAI-II compounds was studied with a Monolith NT.115 pico (NanoTemper Technologies GmbH, Munich, Germany) device using the method of […] et al. […] Otherwise, normalized fluorescence signals and the ratio of relative fluorescence after heating (MST mode) were used. The MST software was used in expert mode to allow heating for 30 s. […] As ligand autofluorescence may interfere with the assay, their autofluorescence values were pretested with the detector used in experiment (nanoblue or pico-red). Fluorescence of the ligand should be below 20% of melanin fluorescence. Sample aggregation and adsorption to the capillaries were used also as exclusion criteria.

[3] = target: T1, human carbonic anhydrase II (Homo sapiens, UniProt P00918); assay: Multiparametric surface plasmon resonance (MP-SPR) interaction kinetics with immobilized hCAII; assay type: binding
T1 construct: purchased Sigma
Procedure: All MP-SPR measurements were conducted at 25 °C using carboxymethyl dextran hydrogel-coated (CMD-3DM) sensors (BioNavis) and were based on the protocol described by Rogez-Florent et al.[22]
Human carbonic anhydrase isoenzyme II (Sigma) was immobilized using a standard amine coupling procedure with the Amine Coupling Kit (BioNavis) and phosphate buffered saline (PBS) (20 mM phosphate buffer, 150 mM NaCl, pH 7.4) as the background buffer. Before immobilization, the sensor surface was cleaned with 2 M sodium chloride and 10 mM sodium hydroxide for 6 min at a flow rate of 30 μL/min. Then, a constant flow rate of 10 μL/min was maintained throughout the immobilization steps. The surface was activated for 7 min with 200 mM 1-ethyl-3-(3-(dimethylamino)propyl)-carbodiimide (EDC) and 50 mM N-hydroxysuccinimide, immediately followed by a 5 min injection of 45 μg/mL hCAII solution in 10 mM acetate buffer, pH 5.5. In the reference flow channel, no enzyme was immobilized. Residual activated groups of the dextran matrix were deactivated by a 7 min injection of 1 M ethanolamine HCl, pH 8.3.
For analyzing CAIs, 1% (v/v) DMSO in PBS, pH 7.4, was used as a running buffer. All CAIs were dissolved in 100% DMSO and stored as 50 mM stock solutions. These stock solutions were further diluted with the running buffer and analyzed using a 3-fold (3–1000 nM) dilution series. […] Each analyte was injected at a flow rate of 100 μL/min, with an association time of 2 min and a dissociation time of 10 min. […] Seven concentrations were measured for each CAI per cycle, and a “wash all” step with running buffer was performed at the end of each cycle to minimize the carry over effects. Each CAI were assayed in triplicate across three independent experiments.
The acquired data were processed using MP-SPR Navi Data Viewer software (version 6.7.0.1, BioNavis) employing the weighted centroid method for determining the SPR peak angular position. Signals from the reference flow channel were subtracted from the corresponding signals of the flow channel containing immobilized hCAII. The moment of sample injection was selected as the zero-time point, where both the time and MP-SPR response were set to zero. Processed data were globally fitted to a simple 1:1 interaction model using TraceDrawer software (version 1.9.2, Ridgeview Instruments AB, Sweden) to obtain kinetic parameters.

[4] = MP-SPR, 25 °C, 1:1 model, read-out: KD

Structure (SMILES)	Ki [1] [nM]	Kd [2] [µM]	other results
CN1CCC(NS(N)(=O)=O)CC1 [C12]	52.1 ± 5.2	1680 ± 3480	–
NS(=O)(=O)c1ccc(-c2ncc(C(=O)N3CCNCC3)o2)s1 [B02]	0.069 ± 0.007	165 ± 19	–
CCn1nc(-c2cc(S(N)(=O)=O)c(C)s2)ccc1=O [B01]	4.8 ± 0.5	105 ± 30	–
NS(=O)(=O)c1ccc(-n2nc(-c3ccc(Cl)c(Cl)c3)ccc2=O)cc1 [A25]	74.1 ± 7.4	–	–
CC(=NNc1ccc(S(N)(=O)=O)cc1)c1cnc2ccccc2n1 [A17]	–	483 ± 137	ka ([3]; MP-SPR, 25 °C, 1:1 model): 0.13 ± 0.05 10^6 M^–1 s^–1; kd ([3]; MP-SPR, 25 °C, 1:1 model): 1.27 ± 0.11 10^–2 s^–1; Kd [3, 4]: 0.113 ± 0.0507 µM
NS(=O)(=O)c1ccc(-c2ccc(=O)[nH]n2)s1 [B04]	3.6 ± 0.4	393 ± 185	–
CC(=NNc1ccc(S(N)(=O)=O)cc1)c1cncc(Br)c1 [A19]	–	561 ± 299	ka ([3]; MP-SPR, 25 °C, 1:1 model): 0.15 ± 0.04 10^6 M^–1 s^–1; kd ([3]; MP-SPR, 25 °C, 1:1 model): 2.25 ± 0.02 10^–2 s^–1; Kd [3, 4]: 0.161 ± 0.041 µM
NS(=O)(=O)N1CCCc2ccccc21 [C15]	89.5 ± 9	–	–
Cc1ccccc1-n1nc(C)c(S(N)(=O)=O)c1C [B11]	0.091 ± 0.01	–	Melanin binding affinity Kd ± confidence [2]: Not detectable
CC(C)(C)OC(=O)N1CCN(S(N)(=O)=O)CC1 [C17]	16.2 ± 1.6	–	Melanin binding affinity Kd ± confidence [2]: Not detectable
Cc1ccccc1-c1noc(-c2ccc(S(N)(=O)=O)cc2)n1 [A11]	0.42 ± 0.04	177 ± 56	–
Cc1cc(-n2cccn2)ccc1S(N)(=O)=O [A23]	0.008 ± 0.001	957 ± 2010	–
COC(=O)C1CCCN1S(N)(=O)=O (stereo not drawn) [C18]	69.8 ± 7	–	Melanin binding affinity Kd ± confidence [2]: Not detectable
CC(C)(C)c1ccc(-c2noc(-c3ccc(S(N)(=O)=O)cc3)n2)cc1 [A26]	0.95 ± 0.09	–	–
NS(=O)(=O)Nc1cccc2ccccc12 [C08]	56.7 ± 5.7	1050 ± 2070	–
NS(=O)(=O)N1CCOCC1 [C21]	66.9 ± 7	–	Melanin binding affinity Kd ± confidence [2]: Not detectable
NS(=O)(=O)c1cccc(-c2nc(-c3cccnc3)no2)c1 [A02]	0.77 ± 0.08	78 ± 24	–
NS(=O)(=O)c1ccc(-c2nc(-c3ccc(Oc4ccc(F)cc4)cc3)no2)cc1 [A16]	48.3 ± 4.8	451 ± 581	–
NS(=O)(=O)N1CCC(O)CC1 [C04]	42.7 ± 4.3	405 ± 311	–
NS(=O)(=O)c1ccc(Cl)c(-n2cccn2)c1 [A27]	0.001 ± 0.001	–	–

Structure (SMILES)	Ki [1] [nM]	Kd [2] [µM]	other results
NS(=O)(=O)NCc1cccc2ccccc12 [C02]	5250 ± 525	122 ± 40	–
NS(=O)(=O)NCc1ccc(F)cc1 [C03]	70.5 ± 7.1	361 ± 700	–
Cc1nn(-c2ccc(S(N)(=O)=O)cc2)c(=O)c2ccccc12 [A14]	0.03 ± 0.01	205 ± 98	–
Cc1ccc(=O)n(-c2ccc(S(N)(=O)=O)cc2)n1 [A30]	0.68 ± 0.07	–	Melanin binding affinity Kd ± confidence [2]: Not detectable
NS(=O)(=O)c1cnn(-c2ccc(Cl)c(S(N)(=O)=O)c2)c1 [B07]	0.008 ± 0.001	941 ± 1740	–
NS(=O)(=O)c1ccc2c(c1)Oc1ccccc1C(=O)N2C1CC1 [A21]	0.82 ± 0.08	722 ± 1030	–
NS(=O)(=O)c1ccc(-n2ncc(N3CCc4ccccc4C3)c(Cl)c2=O)cc1 [A29]	60.5 ± 6	–	–
Cc1cc(C)n(-c2ccc(S(N)(=O)=O)cc2)n1 [A28]	0.004 ± 0.001	–	–
NS(=O)(=O)Nc1ccc(F)cc1F [C01]	76.3 ± 7.6	92 ± 25	–
NS(=O)(=O)NCC1CCCO1 (stereo not drawn) [C05]	63.4 ± 6.3	412 ± 802	–
NS(=O)(=O)Nc1ccc(C(F)(F)F)cc1 [C06]	37.8 ± 3.8	582 ± 465	–
COc1cc(S(N)(=O)=O)ccc1-c1nc(-c2ccc3c(c2)OC(=O)CN3C)no1 [A24]	48.3 ± 4.8	1550 ± 4580	–
CC(=NNc1ccc(S(N)(=O)=O)cc1Br)c1cccnc1 [A15]	–	230 ± 85	ka ([3]; MP-SPR, 25 °C, 1:1 model): 0.43 ± 0.25 10^6 M^–1 s^–1; kd ([3]; MP-SPR, 25 °C, 1:1 model): 1.25 ± 0.43 10^–2 s^–1; Kd [3, 4]: 0.046 ± 0.0298 µM
NS(=O)(=O)c1ccc(-n2cccn2)cc1 [A13]	0.072 ± 0.001	203 ± 367	–
NS(=O)(=O)N1CCc2ccccc2C1 [C09]	32.8 ± 3.3	1120 ± 2350	–
Cc1ccc(-c2noc(N)c2S(N)(=O)=O)cc1S(N)(=O)=O [B06]	6 ± 0.6	573 ± 154	–
COc1cc(S(N)(=O)=O)ccc1-c1nc(-c2cccnc2)no1 [A09]	0.74 ± 0.08	152 ± 98	–
Nc1onc(-c2csc(S(N)(=O)=O)c2)c1S(N)(=O)=O [B09]	24.6 ± 2.5	2130	–
NS(=O)(=O)c1ccc(-c2noc(-c3ccsc3)n2)cc1 [A18]	44.3 ± 4.4	520 ± 79	–
CN(C)CCN(Cc1ccccc1)S(N)(=O)=O [C11]	39.8 ± 4	1620 ± 4530	–

Structure (SMILES)	Ki [1] [nM]	Kd [2] [µM]	other results
CCOC(=O)C1CCN(S(N)(=O)=O)CC1 [C20]	42.8 ± 4.3	–	Melanin binding affinity Kd ± confidence [2]: Not detectable
NS(=O)(=O)N1CCC(N2CCCCC2)CC1 [C14]	99.3 ± 9.9	–	–
NS(=O)(=O)c1ccc(-n2ncc3ccccc3c2=O)cc1 [A06]	0.23 ± 0.02	104 ± 42	–
NS(=O)(=O)c1cc(-c2noc(C3CC3)n2)cs1 [B05]	0.88 ± 0.08	448 ± 166	–
NS(=O)(=O)NCCc1ccc(S(=O)(=O)N2CCCC2)cc1 [C07]	43.5 ± 4.4	596 ± 264	–
NS(=O)(=O)c1ccc(-n2nc(-c3ccccc3)ccc2=O)cc1 [A03]	0.26 ± 0.03	78 ± 39	–
CCN(CC)CCN(C)S(N)(=O)=O [C10]	92.3 ± 9.2	1520 ± 4030	–
CC(=NNc1ccc(S(N)(=O)=O)cc1)c1nccnc1C [A05]	–	97 ± 44	ka ([3]; MP-SPR, 25 °C, 1:1 model): 0.61 ± 0.25 10^6 M^–1 s^–1; kd ([3]; MP-SPR, 25 °C, 1:1 model): 1.70 ± 0.25 10^–2 s^–1; Kd [3, 4]: 0.0315 ± 0.00919 µM
NS(=O)(=O)c1ccc(-n2ncccc2=O)cc1 [A20]	8.2 ± 0.8	–	–
NC(=O)C1CCN(S(N)(=O)=O)CC1 [C22]	59.4 ± 6	–	Melanin binding affinity Kd ± confidence [2]: Not detectable
Cc1nn(-c2ccc(Cl)c(S(N)(=O)=O)c2)c(C)c1S(N)(=O)=O [B08]	0.008 ± 0.001	–	–
Cc1nn(-c2cc(S(N)(=O)=O)ccc2Cl)c(C)c1S(N)(=O)=O [B10]	0.008 ± 0.01	–	–
CC(=O)Nc1nc(-c2csc(S(N)(=O)=O)c2)no1 [B03]	–	231 ± 43	–
NS(=O)(=O)N1CCc2ccccc21 [C19]	472 ± 47.2	–	Melanin binding affinity Kd ± confidence [2]: Not detectable
COc1ccc(-c2noc(-c3ccc(S(N)(=O)=O)cc3)n2)cc1OC [A04]	0.46 ± 0.05	92 ± 17	–
NS(=O)(=O)NC1CCCc2ccccc21 (stereo not drawn) [C16]	42.6 ± 4.3	25000	–
COc1ccc(-c2ccc(=O)n(-c3ccc(S(N)(=O)=O)cc3)n2)cc1 [A10]	0.08 ± 0.001	156 ± 101	–
CC1Cc2ccccc2N1S(N)(=O)=O (stereo not drawn) [C13]	316 ± 31.6	1700	–
NS(=O)(=O)c1ccc(NN=C(c2cncc(F)c2)C2CC2)cc1 [A07]	–	115 ± 85	ka ([3]; MP-SPR, 25 °C, 1:1 model): 0.24 ± 0.05 10^6 M^–1 s^–1; kd ([3]; MP-SPR, 25 °C, 1:1 model): 1.78 ± 0.40 10^–2 s^–1; Kd [3, 4]: 0.0756 ± 0.0112 µM; Kd ([3]; surface plasmon resonance, Appendix table 1, read-out: Kd against hCA II): 0.0756 ± 0.0112 µM
COc1ccc2cnn(-c3ccc(S(N)(=O)=O)cc3)c(=O)c2c1OC [A08]	3.5 ± 0.4	142 ± 55	–
